According to EP1082958A2, “5-HT1F agonists in chronic pain” (ELI LILLY AND COMPANY, priority 1996, dated 1998):

What was measured:
[1] = system: neuronal protein extravasation; test: Protein extravasation after electrical stimulation of the trigeminal ganglion (Evans Blue in dura); type: in vivo, Harlan Sprague-Dawley rats or guinea pigs; conditions: 10 minutes before stimulation of the left trigeminal ganglion, dose inhibiting extravasation by 50%, approximated from dose-response curve, rats or guinea pigs (species not given)
Protocol: Harlan Sprague-Dawley rats (225-325 g) or guinea pigs from Charles River Laboratories (225-325 g) were anesthetized with sodium pentobarbital intraperitoneally (65 mg/kg or 45 mg/kg respectively) and placed in a stereotaxic frame (David Kopf Instruments) with the incisor bar set at - 3.5 mm for rats or -4.0 mm for guinea pigs. Following a midline sagital scalp incision, two pairs of bilateral holes were drilled through the skull (6 mm posteriorly, 2.0 and 4.0 mm laterally in rats; 4 mm posteriorly and 3.2 and 5.2 mm laterally in guinea pigs, all coordinates referenced to bregma). Pairs of stainless steel stimulating electrodes (Rhodes Medical Systems, Inc.) were lowered through the holes in both hemispheres to a depth of 9 mm (rats) or 10.5 mm (guinea pigs) from dura.
The femoral vein was exposed and a dose of the test compound was injected intravenously (1 mL/kg). Approximately 7 minutes later, a 50 mg/kg dose of Evans Blue, a fluorescent dye, was also injected intravenously. The Evans Blue complexed with proteins in the blood and functioned as a marker for protein extravasation. Exactly 10 minutes post-injection of the test compound, the left trigeminal ganglion was stimulated for 3 minutes at a current intensity of 1.0 mA (5 Hz, 4 msec duration) with a Model 273 potentiostat/ galvanostat (EG&G Princeton Applied Research).
Fifteen minutes following stimulation, the animals were killed and exsanguinated with 20 mL of saline. The top of the skull was removed to facilitate the collection of the dural membranes. The membrane samples were removed from both hemispheres, rinsed with water, and spread flat on microscopic slides. Once dried, the tissues were coverslipped with a 70% glycerol/water solution.
A fluorescence microscope (Zeiss) equipped with a grating monochromator and a spectrophotometer was used to quantify the amount of Evans Blue dye in each sample. An excitation wavelength of approximately 535 nm was utilized and the emission intensity at 600 nm was determined. The microscope was equipped with a motorized stage and also interfaced with a personal computer. This facilitated the computer-controlled movement of the stage with fluorescence measurements at 25 points (500 µm steps) on each dural sample. The mean and standard deviation of the measurements was determined by the computer.
The extravasation induced by the electrical stimulation of the trigeminal ganglion was an ipsilateral effect (i.e. occurs only on the side of the dura in which the trigeminal ganglion was stimulated). This allows the other (unstimulated) half of the dura to be used as a control. The ratio of the amount of extravasation in the dura from the stimulated side compared to the unstimulated side dura was calculated. […]

[2] = biological target: T1, 5-HT1E (Homo sapiens, UniProt P28566); test: Radioligand binding ([3H]5-HT displacement) to cloned 5-HT1E receptor; conditions: read-out: BINDING TO SEROTONIN (5-HT1) RECEPTOR SUBTYPES (Ki-nM) 5-HT1E, 4.5-5.5 nM [3H]5-HT, 37°C, Ki from IC50 by Cheng-Prusoff
T1 construct: expressed in transfected cells; host or cells: transfected Ltk- cells (by analogy 'as described supra')
T1 sequence (P28566 whole entry, species assumed): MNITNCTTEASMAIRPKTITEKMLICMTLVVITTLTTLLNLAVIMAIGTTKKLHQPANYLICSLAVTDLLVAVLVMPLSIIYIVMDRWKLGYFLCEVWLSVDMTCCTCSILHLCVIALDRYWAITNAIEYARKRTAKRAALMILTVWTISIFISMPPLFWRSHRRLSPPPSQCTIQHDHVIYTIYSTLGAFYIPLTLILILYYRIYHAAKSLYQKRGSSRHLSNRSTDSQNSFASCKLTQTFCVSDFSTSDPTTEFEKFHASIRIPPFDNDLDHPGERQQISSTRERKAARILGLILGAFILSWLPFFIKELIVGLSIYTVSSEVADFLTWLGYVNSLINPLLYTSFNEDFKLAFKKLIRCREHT
Protocol: Membrane Preparation: Membranes were prepared from transfected Ltk- cells which were grown to 100% confluency. The cells were washed twice with phosphate-buffered saline, scraped from the culture dishes into 5 mL of ice-cold phosphate-buffered saline, and centrifuged at 200 x g for 5 minutes ^at 4°C. The pellet was resuspended in 2.5 mL of ice-cold Tris buffer (20 mM Tris HCl, pH=7.4 a^t […]) and homogenized with a Wheaton tissue grinder. The lysate was subsequently centrifuged at 200 x g for 5 minutes at 4°C to pellet large fragments which were discarded. The supernatant was collected and centrifuged at 40,000 x g for 20 minutes at 4°C. […] Protein concentrations were determined by the method of Bradford (Anal. Biochem., 72, 248-254 (1976)).
Radioligand Binding: [^3H-5-HT] binding was performed using slight modifications of the 5-HT1D assay conditions reported by Herrick-Davis and Titeler (J. Neurochem., 50, 1624-1631 (1988)) with the omission of masking ligands. […] Incubation times were 30 minutes for both saturation and displacement studies based upon initial investigations which determined equilibrium binding conditions. […] Binding data was analyzed by computer-assisted nonlinear regression analysis (Accufit and Accucomp, Lunden Software, Chagrin Falls, OH). […]

SMILES	Inhibition of Protein Extravasation, i.v. ID50 [1]	Ki [2]
CCN(CC)C1CCc2cccc(Cl)c2C1.Cl (centres unmarked) [Compound IV, 8-chloro-2-diethylamino-1,2,3,4-tetrahydronaphthalene hydrochloride]	1.2e-07 mmol/kg	–
O=C(O)C(=O)O.Oc1ccc2[nH]cc(C3CCNCC3)c2c1 [Compound III, 5-hydroxy-3-(4-piperidinyl)-1H-indole oxalate]	8.9e-09 mmol/kg	–
CNS(=O)(=O)Cc1ccc2[nH]cc(CCN(C)C)c2c1.O=C(O)CCC(=O)O [Compound I, 3-[2-(dimethylamino)ethyl]-N-methyl-1H-indole-5-methanesulfonamide butane-1,4-dioate (1:1)]	2.6e-08 mmol/kg	2520 nM
CN(C)C1CCc2[nH]c3ccc(O)cc3c2C1 (centres unmarked) [Compound V, 6-hydroxy-3-dimethylamino-1,2,3,4-tetrahydrocarbazole]	8.7e-09 mmol/kg	–
